Results on twelve molecules are retold here after ChEMBL document CHEMBL4334472, “Multi-target-directed-ligands acting as enzyme inhibitors and receptor ligands” (Eur J Med Chem, 2019).

In test [1] the target is T1, Cholinesterase (Homo sapiens, UniProt P06276). In words: Inhibition of human BChE.
For test [2], the target named is Neuronal acetylcholine receptor subunit alpha-7 (Homo sapiens, UniProt P36544). Description: Inhibition of alpha7 nAChR (unknown origin).
Test [3] deals with Amyloid-beta precursor protein (Homo sapiens) (UniProt P05067). In words: Inhibition of amyloid beta (1 to 42 residues) (unknown origin) self aggregation at 10 uM ThT-based fluorescence assay relative to control.
Sequence of Amyloid-beta precursor protein (Homo sapiens) (P05067 whole entry, the tested form may be a part): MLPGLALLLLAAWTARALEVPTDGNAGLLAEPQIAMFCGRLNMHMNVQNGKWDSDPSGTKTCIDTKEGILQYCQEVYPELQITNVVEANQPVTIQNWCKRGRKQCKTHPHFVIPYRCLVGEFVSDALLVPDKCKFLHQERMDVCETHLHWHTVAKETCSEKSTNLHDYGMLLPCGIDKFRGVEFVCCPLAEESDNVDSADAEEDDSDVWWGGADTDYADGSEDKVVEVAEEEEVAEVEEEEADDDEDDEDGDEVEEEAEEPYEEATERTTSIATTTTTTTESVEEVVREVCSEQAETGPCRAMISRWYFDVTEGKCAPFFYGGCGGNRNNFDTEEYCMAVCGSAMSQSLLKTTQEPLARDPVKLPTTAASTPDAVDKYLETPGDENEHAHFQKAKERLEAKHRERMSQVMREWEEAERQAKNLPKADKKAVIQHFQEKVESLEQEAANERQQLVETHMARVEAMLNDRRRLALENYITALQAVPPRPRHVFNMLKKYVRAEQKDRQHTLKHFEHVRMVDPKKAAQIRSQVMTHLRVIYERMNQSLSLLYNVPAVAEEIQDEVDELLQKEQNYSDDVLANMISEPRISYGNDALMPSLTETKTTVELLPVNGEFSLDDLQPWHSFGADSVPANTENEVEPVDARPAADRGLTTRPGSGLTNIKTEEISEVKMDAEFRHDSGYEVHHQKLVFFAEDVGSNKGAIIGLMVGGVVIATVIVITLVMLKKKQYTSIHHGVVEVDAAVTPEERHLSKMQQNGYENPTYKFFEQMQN
Test [4] has as its target Neuronal acetylcholine receptor; alpha4/beta2 (Homo sapiens, UniProt P17787+P43681). In words: Inhibition of alpha4beta2 nAChR (unknown origin). It counts as protein-complex assay.
The target in test [5] is T2, Acetylcholinesterase (Homo sapiens, UniProt P22303). In words: Inhibition of human AChE.
T2 sequence (P22303 whole entry): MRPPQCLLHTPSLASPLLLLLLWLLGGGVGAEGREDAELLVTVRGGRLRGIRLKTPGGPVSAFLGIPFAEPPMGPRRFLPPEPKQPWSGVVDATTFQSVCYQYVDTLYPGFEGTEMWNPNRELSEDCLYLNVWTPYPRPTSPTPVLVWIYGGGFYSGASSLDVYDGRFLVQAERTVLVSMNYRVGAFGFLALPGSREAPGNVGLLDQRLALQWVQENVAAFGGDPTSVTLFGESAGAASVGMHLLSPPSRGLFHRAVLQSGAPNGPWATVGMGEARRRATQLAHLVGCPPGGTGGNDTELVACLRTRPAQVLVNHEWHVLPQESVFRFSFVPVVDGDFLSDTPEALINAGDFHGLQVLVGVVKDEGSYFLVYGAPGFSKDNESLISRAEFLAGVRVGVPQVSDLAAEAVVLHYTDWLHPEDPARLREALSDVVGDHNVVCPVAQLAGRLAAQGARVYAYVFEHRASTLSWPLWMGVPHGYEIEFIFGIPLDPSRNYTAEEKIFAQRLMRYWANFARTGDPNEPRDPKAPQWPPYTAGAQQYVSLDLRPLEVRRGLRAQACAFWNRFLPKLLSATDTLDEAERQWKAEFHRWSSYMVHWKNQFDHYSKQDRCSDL
In test [6] the target is Thromboxane A2 receptor (Homo sapiens) (UniProt P21731). In words: Antagonist activity at TP receptor in human washed platelet assessed as U46619 induced platelet aggregation after 6 mins. On the set-up: scale not given: the % may be the effect or the level left.
Sequence of Thromboxane A2 receptor (Homo sapiens) (P21731 whole entry): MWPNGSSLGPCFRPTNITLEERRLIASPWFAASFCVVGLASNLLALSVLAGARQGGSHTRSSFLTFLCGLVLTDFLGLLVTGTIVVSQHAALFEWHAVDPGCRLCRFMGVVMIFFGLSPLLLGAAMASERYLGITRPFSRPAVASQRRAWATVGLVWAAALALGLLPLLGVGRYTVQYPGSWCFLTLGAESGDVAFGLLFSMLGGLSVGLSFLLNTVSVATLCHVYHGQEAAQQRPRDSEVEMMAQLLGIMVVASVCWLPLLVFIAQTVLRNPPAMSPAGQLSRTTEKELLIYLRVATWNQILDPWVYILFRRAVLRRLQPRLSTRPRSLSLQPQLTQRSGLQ
Test [7] has as its target Prostaglandin G/H synthase 2 (Homo sapiens, UniProt P35354). In words: Inhibition of COX2 in lympho-monocytes (unknown origin) preincubated for 30 mins followed by LPS challenged measured after 24 hrs by EIA. The test is classed as cell-based.
In test [8] the target is Prostaglandin G/H synthase 1 (Homo sapiens, UniProt P23219). Description: Inhibition of COX1 in human platelets after 30 mins by mass spectrometry analysis.
Sequence of Prostaglandin G/H synthase 1 (Homo sapiens, UniProt P23219) (P23219 whole entry): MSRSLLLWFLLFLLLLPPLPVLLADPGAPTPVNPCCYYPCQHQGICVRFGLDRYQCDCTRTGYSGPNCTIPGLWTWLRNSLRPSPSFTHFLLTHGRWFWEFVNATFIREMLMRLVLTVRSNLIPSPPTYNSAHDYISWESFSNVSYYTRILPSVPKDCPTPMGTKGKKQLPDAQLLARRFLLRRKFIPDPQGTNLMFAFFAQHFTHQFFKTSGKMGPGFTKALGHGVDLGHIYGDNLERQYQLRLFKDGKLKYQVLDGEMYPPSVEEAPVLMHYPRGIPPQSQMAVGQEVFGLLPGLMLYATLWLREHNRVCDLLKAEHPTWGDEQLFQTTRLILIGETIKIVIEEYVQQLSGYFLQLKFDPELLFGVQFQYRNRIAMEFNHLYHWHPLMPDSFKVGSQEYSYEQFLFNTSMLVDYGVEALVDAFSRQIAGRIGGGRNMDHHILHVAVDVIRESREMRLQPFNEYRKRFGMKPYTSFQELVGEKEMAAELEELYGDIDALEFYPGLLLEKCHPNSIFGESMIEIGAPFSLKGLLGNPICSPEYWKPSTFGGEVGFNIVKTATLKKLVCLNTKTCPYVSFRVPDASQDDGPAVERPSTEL
The target of test [9] is Amine oxidase [flavin-containing] A (Homo sapiens, UniProt P21397). Description: Inhibition of human MAOA.
Test [10] deals with 5-hydroxytryptamine receptor 1A (Mus musculus, UniProt Q64264). In words: Agonist activity at mouse 5-HT1A expressed in HEK293 cells after 2 to 5 mins. It counts as cell-based.
The target of test [11] is Acetylcholinesterase (Rattus norvegicus, UniProt P37136). In words: Inhibition of rat AChE.
Another test deals with Butyrylcholinesterase (Rattus norvegicus, UniProt Q9JKC1). In words: Inhibition of rat BChE.
Test [12] addresses Sodium-dependent serotonin transporter (Homo sapiens, UniProt P31645). Description: Inhibition of 5HTT (unknown origin).
The target in test [13] is Prostaglandin G/H synthase 1 (Ovis aries, UniProt P05979). Description: Inhibition of ovine COX1.
The target of test [14] is Prostaglandin G/H synthase 2 (Ovis aries, UniProt P79208). In words: Inhibition of ovine COX2.
The target of test [15] is Transient receptor potential cation channel subfamily V member 1 (Homo sapiens, UniProt Q8NER1). In words: Inhibition of TRPV1 (unknown origin).
In test [16] the target is Muscarinic acetylcholine receptor M1 (Homo sapiens, UniProt P11229). Description: Inhibition of M1R (unknown origin).
The nature of test [17]: Inhibition of nAChR (unknown origin) after 1 to 2 mins. On the set-up: species or system Homo sapiens.
Another test deals with Beta-secretase 1 (Homo sapiens, UniProt P56817). Description: Inhibition of BACE1 (unknown origin) using EVNLDAEF as substrate by fluorescence assay.
For test [18], the target named is Amine oxidase [flavin-containing] B (Homo sapiens, UniProt P27338). In words: Inhibition of human MAOB.
Sequence of Amine oxidase [flavin-containing] B (P27338 whole entry): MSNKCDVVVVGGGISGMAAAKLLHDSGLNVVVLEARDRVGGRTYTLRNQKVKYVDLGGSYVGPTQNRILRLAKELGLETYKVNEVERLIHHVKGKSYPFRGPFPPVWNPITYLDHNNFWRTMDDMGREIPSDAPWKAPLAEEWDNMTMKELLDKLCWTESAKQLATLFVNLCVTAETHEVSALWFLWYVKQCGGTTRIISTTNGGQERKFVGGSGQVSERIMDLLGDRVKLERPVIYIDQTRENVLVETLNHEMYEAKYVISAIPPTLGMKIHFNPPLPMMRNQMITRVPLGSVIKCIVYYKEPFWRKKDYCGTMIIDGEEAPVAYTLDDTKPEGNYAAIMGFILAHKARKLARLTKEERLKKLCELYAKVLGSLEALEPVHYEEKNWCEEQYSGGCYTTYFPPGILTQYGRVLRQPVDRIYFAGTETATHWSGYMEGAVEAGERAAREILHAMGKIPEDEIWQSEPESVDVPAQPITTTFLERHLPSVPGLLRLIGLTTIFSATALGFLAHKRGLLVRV
In another test the target is Histamine H3 receptor (Homo sapiens, UniProt Q9Y5N1). In words: Inhibition of human histamine H3 receptor.
Test [19] concerns the target Cholinesterase (Equus caballus, UniProt P81908). Description: Inhibition of equine BChE.
Test [20] deals with 5-hydroxytryptamine receptor 6 (Homo sapiens, UniProt P50406). In words: Displacement of [3H]-LSD from recombinant human 5HT6 receptor expressed in CHOK1 cells measured after 60 mins by microbeta scintillation counting method. The test is classed as cell-based. For orientation: Displacement assays read how much labelled ligand stays bound in the presence of the test substance.
Sequence of 5-hydroxytryptamine receptor 6 (P50406 whole entry): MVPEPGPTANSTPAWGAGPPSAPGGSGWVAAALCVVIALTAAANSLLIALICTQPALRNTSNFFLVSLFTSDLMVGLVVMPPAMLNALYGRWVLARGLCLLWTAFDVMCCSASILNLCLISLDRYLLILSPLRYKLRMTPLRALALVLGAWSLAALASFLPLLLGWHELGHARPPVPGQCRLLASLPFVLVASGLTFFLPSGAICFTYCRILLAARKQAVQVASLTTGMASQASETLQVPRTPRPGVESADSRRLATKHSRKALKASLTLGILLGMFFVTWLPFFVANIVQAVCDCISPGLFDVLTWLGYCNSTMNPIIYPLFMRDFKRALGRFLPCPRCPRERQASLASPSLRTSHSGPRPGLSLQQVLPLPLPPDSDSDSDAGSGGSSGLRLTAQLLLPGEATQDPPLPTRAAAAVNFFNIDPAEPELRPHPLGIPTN

In test [21] the target is T2, Acetylcholinesterase. Description: Inhibition of recombinant human AChE using acetylthiocholine iodide as substrate preincubated for 5 mins followed by substrate addition measured after 5 mins.
The target in test [22] is T1, Cholinesterase. In words: Inhibition of recombinant human BChE using butyrylthiocholine iodide as substrate preincubated for 5 mins followed by substrate addition measured after 5 mins.

T1 sequence (P06276 whole entry): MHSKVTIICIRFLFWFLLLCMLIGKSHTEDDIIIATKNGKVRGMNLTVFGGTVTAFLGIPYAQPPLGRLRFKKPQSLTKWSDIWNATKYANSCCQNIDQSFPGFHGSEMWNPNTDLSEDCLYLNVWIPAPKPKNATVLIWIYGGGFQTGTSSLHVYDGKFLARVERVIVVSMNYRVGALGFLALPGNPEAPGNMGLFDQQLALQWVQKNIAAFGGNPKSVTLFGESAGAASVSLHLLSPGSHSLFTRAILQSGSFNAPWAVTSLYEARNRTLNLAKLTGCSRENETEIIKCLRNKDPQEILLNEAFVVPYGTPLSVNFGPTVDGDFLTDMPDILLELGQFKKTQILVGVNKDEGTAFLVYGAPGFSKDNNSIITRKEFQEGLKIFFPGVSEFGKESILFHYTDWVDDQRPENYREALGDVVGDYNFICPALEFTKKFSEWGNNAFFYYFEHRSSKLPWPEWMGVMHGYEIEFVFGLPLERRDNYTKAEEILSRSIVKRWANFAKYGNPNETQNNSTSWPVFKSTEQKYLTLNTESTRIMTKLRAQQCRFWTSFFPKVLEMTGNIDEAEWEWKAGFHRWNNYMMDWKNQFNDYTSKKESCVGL
Sequence of Prostaglandin G/H synthase 2 (Homo sapiens, UniProt P35354) (P35354 whole entry): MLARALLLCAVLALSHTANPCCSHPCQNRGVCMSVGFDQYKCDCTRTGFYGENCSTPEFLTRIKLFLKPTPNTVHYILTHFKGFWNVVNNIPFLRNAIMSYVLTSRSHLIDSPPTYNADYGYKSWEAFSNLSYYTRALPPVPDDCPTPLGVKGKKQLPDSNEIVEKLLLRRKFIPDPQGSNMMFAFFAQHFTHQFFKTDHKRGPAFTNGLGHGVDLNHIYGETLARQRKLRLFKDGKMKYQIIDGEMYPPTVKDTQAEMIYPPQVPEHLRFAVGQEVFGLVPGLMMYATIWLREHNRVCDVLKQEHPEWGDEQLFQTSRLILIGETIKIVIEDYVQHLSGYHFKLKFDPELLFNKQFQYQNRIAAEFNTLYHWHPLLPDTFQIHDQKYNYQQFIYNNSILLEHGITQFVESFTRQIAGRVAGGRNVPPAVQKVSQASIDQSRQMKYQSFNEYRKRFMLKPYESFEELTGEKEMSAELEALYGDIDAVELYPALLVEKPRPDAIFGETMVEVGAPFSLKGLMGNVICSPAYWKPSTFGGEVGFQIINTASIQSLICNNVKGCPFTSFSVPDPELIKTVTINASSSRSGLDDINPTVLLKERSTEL
Sequence of Neuronal acetylcholine receptor subunit alpha-7 (P36544 whole entry, the tested form may be a part): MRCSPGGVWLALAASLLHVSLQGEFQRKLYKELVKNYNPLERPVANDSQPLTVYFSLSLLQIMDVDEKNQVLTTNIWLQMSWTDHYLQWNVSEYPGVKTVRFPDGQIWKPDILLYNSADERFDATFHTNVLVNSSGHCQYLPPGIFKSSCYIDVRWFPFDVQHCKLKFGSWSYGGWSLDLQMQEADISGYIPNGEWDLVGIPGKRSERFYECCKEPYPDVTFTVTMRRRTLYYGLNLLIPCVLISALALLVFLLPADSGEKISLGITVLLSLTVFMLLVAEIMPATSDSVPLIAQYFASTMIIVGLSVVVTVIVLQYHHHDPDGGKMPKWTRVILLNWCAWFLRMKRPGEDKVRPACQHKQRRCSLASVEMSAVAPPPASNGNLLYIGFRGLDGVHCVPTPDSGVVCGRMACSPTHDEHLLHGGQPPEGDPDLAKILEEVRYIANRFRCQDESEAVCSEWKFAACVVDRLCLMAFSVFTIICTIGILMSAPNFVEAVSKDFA

As usually defined, the IC50 is the concentration needed to halve the response being measured. For orientation: Ki means the dissociation constant of the complex between target and ligand, obtained from inhibition or displacement. As usually defined, the inhibition is how much of the control response was suppressed. For `COc1ccccc1CN1CCN(CCCCCOc2cccc3[nH]c4ccccc4c23)CC1`, the IC50 is 600 nM against Cholinesterase [1] and 2400 nM on Acetylcholinesterase [5]. The inhibitory constant (Ki) in test [2] was 66800 nM; in test [4], 35300 nM. For the same molecule, in [3], the inhibition was 34%.

As for `Cc1ccc(Nc2c(F)cccc2Cl)c(CNc2nnn[nH]2)c1`, the Activity in test [6] is 5.6%. In addition, the IC50 in [7] was 14 nM; in test [8], 13200 nM.

In test [9], `C#CCN(C)Cc1cc2cc(OCCCC3CCN(Cc4ccccc4)CC3)ccc2n1C` displayed an IC50 of 0.3 nM.

What is called EC50 is the concentration at which the effect is half-maximal. For `N#Cc1ccc2[nH]cc(CCCCN3CCN(c4c5c(nc6ccccc46)CCCC5)CC3)c2c1`, the EC50 in test [10] was 107 nM. The IC50 stood at 76 nM on Acetylcholinesterase [11], 3300 nM against Butyrylcholinesterase and 15.8 nM in test [12].

On to `CC[C@@H](/C=C/[C@@H](C)[C@H]1CC[C@H]2C3=CC[C@H]4C[C@@H](O)CC[C@]4(C)[C@H]3CC[C@]12C)C(C)C`, for which the IC50 in [13] was 16200 nM; in test [14] it was 7800 nM; in test [15], 1400 nM.

Regarding `Cc1ccc(Nc2c(F)cccc2Cl)c(CNS(=O)(=O)C(F)(F)F)c1`, the Activity in test [6] amounted to 5.9%. For the same molecule, the IC50 came out at 400 nM in [7] and 16100 nM in test [8].

`COc1ccc2nc3c(c(NCCCCCCCCNC(=S)NC45CC6CC(CC(C6)C4)C5)c2c1)CCCC3`: the IC50 in test [16] came to 2200 nM; in test [17], 1100 nM; at Cholinesterase [1], 300 nM; against Acetylcholinesterase [5] it was 1600 nM; against Beta-secretase 1, 18400 nM. The same molecule came in with an inhibition in test [3] of 77%.

Take `O=C(c1ccc(OCCCc2cnc[nH]2)cc1)C1CC1` [CIPROXIFAN]: 1900 nM corresponded to half-maximal inhibition in test [18] (IC50).

With `O=c1c2cc(OCCCN3CCCCC3)ccc2nc2n1CCC2`, the values for the IC50 against Acetylcholinesterase [5] and on Cholinesterase [19] were 5400 nM and 248000 nM, respectively. Further, the affinity on Histamine H3 receptor corresponds to a Ki of 2500 nM.

For `Cc1c(OCc2ccccc2)cccc1N1CCN(CCCCCCNc2c3c(nc4c2CCCC4)CCCC3)CC1`, the Ki in test [20] was found to be 18 nM. Also, the results for the IC50 on Acetylcholinesterase [21] and on Cholinesterase [22] were 14 nM and 22 nM, respectively.

`CN(CCCN1CCN(c2cccc3c2ccn3Cc2ccccc2)CC1)Cc1ccccc1`: the Ki in [20] is 240 nM. Further, the IC50 at Cholinesterase [22] was found to be 196 nM.

As to `COc1cc2c(cc1OC)-c1cc(OCCN3CCCCC3)nc(=O)n1CC2`, the IC50 on Acetylcholinesterase [5] was 5000 nM.
